Measured values published in patent US9579319B2 (Redx Pharma PLC, priority 2013, dated 2017).
Where two headings read alike, the source gives them in different places.

Tested on: Hedgehog signalling pathway
Experiment: Gli-reporter NIH3T3 luciferase assay (Hedgehog pathway inhibition)
Type: cell-based
Settings: NIH3T3, Gli-reporter NIH-3T3 cells, recombinant mouse sonic hedgehog, 24 hours, luminescence
Description: In vitro biological evaluation of compounds of the invention was carried out using the procedure detailed below. The procedure provides activity data for the compounds of the invention against the Hedgehog signalling pathway. The activity is represented as IC50 values in Table 12 below.
The Gli-reporter NIH3T3 cell line (BPS Biosciences) was grown according to the suppliers recommendations. Briefly, cells were maintained in growth medium (DMEM supplemented with 10% calf serum, 1% Penicillin/Streptomycin, and 500 µg/mL of Geneticin) and grown at 37° C., 5% CO2. In order to passage cells they were first rinsed with phosphate buffered saline before the addition of 0.05% Trypsin/EDTA. Fresh growth media was added and the cells were transferred to a centrifuge tube, spun and resuspended at an appropriate cell density.
Gli-reporter NIH-3T3 cells were seeded at 20,000 cells/well into 96 well, poly-D-lysine coated white clear bottomed full area TC plates in growth media (without geneticin). Three wells were left with just media as cell free controls. Cells were then incubated for 24 hours at 37° C. in a 5% CO2.
Serial dilutions of the test compounds were prepared in 100% DMSO. 10 μl of compound or DMSO from each well was pipetted into a sterile, 0.5 ml deep well conical bottomed 96 well plate (intermediate plate). 190 μl of warmed assay media (Opti-MEM supplemented with 0.5% calf serum, 1% non-essential amino acids, 1 mM sodium pyruvate, 10 mM HEPES, 1% penicillin/Streptomycin) was then added to each well and mixed five times at 180 μl by electronic pipette to ensure homogeneity of the compound solution. This 1:20 dilution gives a top concentration of 50 μM in 5% DMSO, 95% assay media. 10 μl was pipetted from each well of the intermediate plate into a second deep well sterile plate. 490 μl of warm assay media was then added to each well and mixed five times at 300 μl. This gives a final top concentration of 1 μM in 0.1% DMSO.
After the 24 hour incubation, media was carefully removed by pipette and replaced with 45 μl of compound dilutions in triplicate. This was incubated for one hour at 37° C. in a 5% CO2. After an hour, 5 μl 10 μg/mL recombinant mouse sonic hedgehog (R&D Systems) was added to each well and the plates were incubated for a further 24 hours at 37° C., 5% CO2.
After 24 hours, plates were removed from the incubator and left to acclimatise to room temperature for 20 minutes. 50 μl of OneGLO assay reagent (Promega) was then added to each well and the plates gently shaken for a further 30 minutes. Plates were then read for luminescence on the EnVision plate reader (PerkinElmer).

[1] = read-out: Category (Hedgehog pathway inhibition activity, IC50)

IC50 [1] [nM] | IC50 (read-out: Gli Luc nM (IC50)) [nM] | Compound
10 to 200 |  | Cn1nccc1-c1nnc(N2CCC(NCc3ccc(C(F)(F)F)cc3)CC2)c2ccccc12 [Example 37, 1-[4-(2-methylpyrazol-3-yl)phthalazin-1-yl]-N-[[4-(trifluoromethyl)phenyl]methyl]piperidin-4-amine]
10 to 200 |  | Cn1nccc1-c1nnc(N2CCC(NCc3ccccc3Cl)CC2)c2ccccc12 [Example 38, N-[(2-chlorophenyl)methyl]-1-[4-(2-methylpyrazol-3-yl)phthalazin-1-yl]piperidin-4-amine]
10 to 200 |  | Cn1nccc1-c1nnc(N2CCC(NCc3cccc(C(F)(F)F)c3)CC2)c2ccccc12 [Example 39, 1-[4-(2-methylpyrazol-3-yl)phthalazin-1-yl]-N-[[3-(trifluoromethyl)phenyl]methyl]piperidin-4-amine]
< 10 |  | Cn1nccc1-c1nnc(N2CCC(NCc3ccccc3C(F)(F)F)CC2)c2ccccc12 [Example 40, 1-[4-(2-methylpyrazol-3-yl)phthalazin-1-yl]-N-[[2-(trifluoromethyl)phenyl]methyl]piperidin-4-amine]
10 to 200 |  | Cc1c(-c2ccnn2C)nnc(N2CCC(N(C)Cc3ccc(F)cc3C(F)(F)F)CC2)c1C [Example 41, 1-[4,5-dimethyl-6-(2-methylpyrazol-3-yl)pyridazin-3-yl]-N-[[4-fluoro-2-(trifluoromethyl)phenyl]methyl]-N-methyl-piperidin-4-amine]
< 10 | 0.04 | CN(Cc1ccc(F)cc1C(F)(F)F)C1CCN(c2ccc(-c3ccnn3C)nn2)CC1 [Example 42, N-[[4-fluoro-2-(trifluoromethyl)phenyl]methyl]-N-methyl-1-[6-(2-methylpyrazol-3-yl)pyridazin-3-yl]piperidin-4-amine]
10 to 200 |  | CC(C)c1ccccc1CNC1CCN(c2nnc(-c3ccnn3C)c3ccccc23)CC1 [Example 43, N-[(2-isopropylphenyl)methyl]-1-[4-(2-methylpyrazol-3-yl)phthalazin-1-yl]piperidin-4-amine]
< 10 |  | Cn1nccc1-c1nnc(N2CCC(NCc3ccc(Cl)nc3C(F)(F)F)CC2)c2ccccc12 [Example 44, N-[[6-chloro-2-(trifluoromethyl)-3-pyridyl]methyl]-1-[4-(2-methylpyrazol-3-yl)phthalazin-1-yl]piperidin-4-amine]
10 to 200 |  | COc1ccc(NC(=O)NC2CCN(c3nnc(-c4ccnn4C)c4ccccc34)CC2)cc1 [Example 45, 1-(4-methoxyphenyl)-3-[1-[4-(2-methylpyrazol-3-yl)phthalazin-1-yl]-4-piperidyl]urea]
< 10 |  | Cn1nccc1-c1nnc(N2CCC(NC(=O)Nc3ccccc3F)CC2)c2ccccc12 [Example 46, 1-(2-fluorophenyl)-3-[1-[4-(2-methylpyrazol-3-yl)phthalazin-1-yl]-4-piperidyl]urea]
< 10 |  | CN(Cc1ccc(F)cc1C(F)(F)F)C1CCN(c2nnc(-c3ccnn3C)c3ccncc23)CC1 [Example 47, N-[[4-fluoro-2-(trifluoromethyl)phenyl]methyl]-N-methyl-1-[1-(2-methylpyrazol-3-yl)pyrido[3,4-d]pyridazin-4-yl]piperidin-4-amine]
< 10 |  | CN(C1CCN(c2nnc(-c3ccnn3C)c3ccccc23)CC1)S(=O)(=O)c1ccc(F)cc1C(F)(F)F [Example 48, 4-fluoro-N-methyl-N-[1-[4-(2-methylpyrazol-3-yl)phthalazin-1-yl]-4-piperidyl]-2-(trifluoromethyl)benzenesulfonamide]
10 to 200 |  | Cn1nccc1-c1nnc(N2CCC(NCc3ccc(F)cc3C(F)(F)F)CC2)c2cnccc12 [Example 49, N-[[4-fluoro-2-(trifluoromethyl)phenyl]methyl]-1-[1-(2-methylpyrazol-3-yl)pyrido[3,4-d]pyridazin-4-yl]piperidin-4-amine]
< 10 | 1.79 | Cn1nccc1-c1nnc(N2CCC(NS(=O)(=O)c3ccc(F)cc3C(F)(F)F)CC2)c2ccccc12 [Example 50, 4-fluoro-N-[1-[4-(2-methylpyrazol-3-yl)phthalazin-1-yl]-4-piperidyl]-2-(trifluoromethyl)benzenesulfonamide]
10 to 200 |  | Cn1nccc1-c1nnc(N2CCC(NCc3ccncc3C(F)(F)F)CC2)c2ccccc12 [Example 51, 1-[4-(2-methylpyrazol-3-yl)phthalazin-1-yl]-N-[[3-(trifluoromethyl)-4-pyridyl]methyl]piperidin-4-amine]
10 to 200 |  | CCOc1ccccc1CNC1CCN(c2nnc(-c3ccnn3C)c3ccccc23)CC1 [Example 52, N-[(2-ethoxyphenyl)methyl]-1-[4-(2-methylpyrazol-3-yl)phthalazin-1-yl]piperidin-4-amine]
< 10 |  | Cn1nccc1-c1nnc(N2CCC(Nc3ccc(F)cc3C(F)(F)F)CC2)c2ccccc12 [Example 53, N-[4-fluoro-2-(trifluoromethyl)phenyl]-1-[4-(2-methylpyrazol-3-yl)phthalazin-1-yl]piperidin-4-amine]
200 to 2000 |  | CN(Cc1ccc(F)cc1C(F)(F)F)C1CCCN(c2nnc(-c3ccnn3C)c3ccccc23)C1 (centres unmarked) [Example 54, N-[[4-fluoro-2-(trifluoromethyl)phenyl]methyl]-N-methyl-1-[4-(2-methylpyrazol-3-yl)phthalazin-1-yl]piperidin-3-amine]
10 to 200 |  | CN(Cc1ccc(F)cc1C(F)(F)F)C1CCN(c2nnc(-c3ccnn3C)c3ccccc23)C1 (centres unmarked) [Example 55, N-[[4-fluoro-2-(trifluoromethyl)phenyl]methyl]-N-methyl-1-[4-(2-methylpyrazol-3-yl)phthalazin-1-yl]pyrrolidin-3-amine]
10 to 200 |  | Cn1nccc1-c1nnc(N2CCC(N(Cc3ccc(F)cc3C(F)(F)F)C(=O)C(F)(F)F)CC2)c2ccccc12 [Example 56, 2,2,2-trifluoro-N-[[4-fluoro-2-(trifluoromethyl)phenyl]methyl]-N-[1-[4-(2-methylpyrazol-3-yl)phthalazin-1-yl]-4-piperidyl]acetamide]
200 to 2000 |  | Cn1nccc1-c1nnc(N2CCC(NCc3ccccc3)CC2)c2ccccc12 [Example 57, N-benzyl-1-[4-(2-methylpyrazol-3-yl)phthalazin-1-yl]piperidin-4-amine]
200 to 2000 |  | COc1nnc(N2CCC(NCc3ccc(F)cc3C(F)(F)F)CC2)c2ccccc12 [Example 58, N-[[4-fluoro-2-(trifluoromethyl)phenyl]methyl]-1-(4-methoxyphthalazin-1-yl)piperidin-4-amine]
10 to 200 |  | CN(Cc1ccccc1)C1CCN(c2nnc(-c3ccnn3C)c3ccccc23)CC1 [Example 59, N-benzyl-N-methyl-1-[4-(2-methylpyrazol-3-yl)phthalazin-1-yl]piperidin-4-amine]
10 to 200 |  | CN(Cc1ccc(C#N)cc1)C1CCN(c2nnc(-c3ccnn3C)c3ccccc23)CC1 [Example 60, 4-[[methyl-[1-[4-(2-methylpyrazol-3-yl)phthalazin-1-yl]-4-piperidyl]amino]methyl]benzonitrile]
200 to 2000 |  | COc1ccccc1CN(C)C1CCN(c2nnc(-c3ccnn3C)c3ccccc23)CC1 [Example 61, N-[(2-methoxyphenyl)methyl]-N-methyl-1-[4-(2-methylpyrazol-3-yl)phthalazin-1-yl]piperidin-4-amine]
10 to 200 |  | COc1cccc(CN(C)C2CCN(c3nnc(-c4ccnn4C)c4ccccc34)CC2)c1 [Example 62, N-[(3-methoxyphenyl)methyl]-N-methyl-1-[4-(2-methylpyrazol-3-yl)phthalazin-1-yl]piperidin-4-amine]
200 to 2000 |  | COc1ccc(CN(C)C2CCN(c3nnc(-c4ccnn4C)c4ccccc34)CC2)cc1 [Example 63, (4-methoxyphenyl)methyl-methyl-[1-[4-(2-methylpyrazol-3-yl)phthalazin-1-yl]-4-piperidyl]ammonium]
10 to 200 |  | CN(Cc1ccccc1F)C1CCN(c2nnc(-c3ccnn3C)c3ccccc23)CC1 [Example 64, (2-fluorophenyl)methyl-methyl-[1-[4-(2-methylpyrazol-3-yl)phthalazin-1-yl]-4-piperidyl]ammonium]
10 to 200 |  | CN(Cc1cccc(F)c1)C1CCN(c2nnc(-c3ccnn3C)c3ccccc23)CC1 [Example 65, (3-fluorophenyl)methyl-methyl-[1-[4-(2-methylpyrazol-3-yl)phthalazin-1-yl]-4-piperidyl]ammonium]
10 to 200 |  | Cn1nccc1-c1nnc(N2CCC(NC(=O)OC(C)(C)C)CC2)c2ccccc12 [Example 66, tert-butyl N-[1-[4-(2-methylpyrazol-3-yl)phthalazin-1-yl]-4-piperidyl]carbamate]
